{
  "source": "patent US20250332378A1",
  "about": "“CATHETERS” (ConvaTec Limited, priority 2023, published 2025)",
  "type_in_all_cases": "cell-based",
  "key": {"E. faecalis": {"tested_on": "E. faecalis", "experiment": "Rate of kill assessment against repeat inoculation, catheter submerged in medium", "details": "for reduction in the microbial colony forming unit (CFU) counts: reinoculation at 24 hours; for time up to which rapid kill was observed: within 5 seconds following inoculation, repeat inoculation up to 24 hours", "method": "(§1) To assess the sterilisation potential of the medium of the invention, a microbiology assessment was conducted which consisted of rate of kill assessments against repeat inoculation of E. coli and E. faecalis. These organisms were selected as they are commonly identified in catheter associated urinary tract infections. The selection also covers both gram-positive and gram-negative species to test the broad spectrum antimicrobial performance of the medium of the invention.\n(§2) Intermittent urinary catheters, as used for Example 1, were provided and submerged in an aqueous medium comprising sodium hypochlorite and sodium chloride. The media comprising the catheters were respectively inoculated with the two microorganisms.\n(§3) A direct inoculation method was applied against each microorganism. The test organisms were reinoculated following 1, 2, 3, 4, 5, 6, and 24 hours. Following each inoculation, a sample was taken after 5 seconds, 1, 5, 10 and 15 minutes to evaluate the rate of kill.\n(§4) A microbiology assessment was performed using a medium of the invention comprising hypochlorous acid in an analogous manner to that performed for Example 2. However, for this test, following each inoculation, a sample was only taken after 5 seconds to evaluate the rate of kill. Further, in addition to the previous microorganisms tested, a further gram-positive organism, S. aureus, was tested.\n(§5) To evaluate the antimicrobial activity further, the test was repeated using the same frequency of inoculation, but with sampling performed up to 5 minutes after reinoculation at 24 hours. Even for the most challenging organism, E. faecalis, a reduction in the microbial colony forming unit (CFU) counts of over 3 orders of magnitude was observed after 5 minutes of inoculation.\n(§6) A microbiology assessment was performed using the media of the invention comprising hypochlorous acid in an analogous manner to that performed for Example 2. However, for this test, following each inoculation, samples were taken after 5 seconds, 30 seconds, 1, 2, and 5 minutes to evaluate the rate of kill."}, "E. coli": {"tested_on": "E. coli", "experiment": "Rate of kill assessment against repeat inoculation, catheter submerged in medium", "details": "for time up to which rapid kill was observed: within 5 seconds following inoculation, repeat inoculation up to 24 hours; for time up to which highly effective kill was observed: all time periods post-inoculation", "method": "as §1, §2, §3, §4, §5, §6"}, "S. aureus": {"tested_on": "S. aureus", "experiment": "Rate of kill assessment against repeat inoculation, catheter submerged in medium", "details": "within 5 seconds following inoculation; repeat inoculation up to 24 hours", "method": "as §1, §2, §3, §4"}, "[1]": {"tested_on": "Escherichia coli NCIMB 14067", "experiment": "In vitro direct inoculation method, comparative test", "method": "(§7) An in vitro direct inoculation method was used to assess the antimicrobial activity of sulfanilamide in an intermittent urinary catheter scenario against […] Escherichia coli NCIMB 14067 and […] Enterococcus faecalis NCTC 12201; two microorganisms associated with urinary tract infections. Sulfanilamide concentrations of 0.1% and 0.01% were tested and bacterial levels monitored over a period of 5 minutes.\n(§8) Representative colonies of the challenge microorganisms, from an 18-24 hour challenge culture plate, were dispersed in MRD to obtain an optical density (OD540 nm) equivalent to approximately 1×10^8 CFU/mL. This was diluted to obtain a working concentration of 1×10^6 CFU/mL. A quantitative count was performed to confirm the inoculum level.\n(§9) The challenge organism was prepared in MRD to a concentration of approximately 1×10^6 CFU/mL. This suspension was added in a 1 mL volume to 9 mL of sample (n=3 per sample, n=2 per control) in a sterile 30 mL universal and pipetted up and down to mix. Following each testing period, 5 seconds, 30 seconds, 1 minute, 2 minutes and 5 minutes, 100 μL of the test solution was transferred to 0.9 mL and 9.9 mL volumes of DENB (1:10 and 1:100 dilutions respectively). The most appropriate dilutions were inoculated (100 μL) onto duplicate pre-dried (tryptone soy agar) TSA plates and the inoculum spread using separate sterile L-shaped spreaders (for 10^−1 and 10^−2 dilutions, 0.5 mL were placed onto duplicate plates). The TSA plates were allowed to dry before being inverted and incubated at 35±3° C. for at least 48 hours. Following the incubation period, the number of bacterial colonies were counted on the most appropriate dilution for each dressing type i.e. between 25-250 CFU/plate.\n(§10) The samples tested were: 0.1% sulfanilamide in sterile deionised water (SDW); 0.01% sulfanilamide in SDW; 100 ppm hypochlorous acid in SDW; and a SDW control."}, "[2]": {"tested_on": "Enterococcus faecalis NCTC 12201", "experiment": "In vitro direct inoculation method, comparative test", "method": "as §7, §8, §9, §10"}, "E. coli NCIMB 14067": {"tested_on": "E. coli NCIMB 14067", "experiment": "Antimicrobial efficacy at very low concentrations, total viable counts", "details": "for numbers of bacteria: after 30 seconds, approximately 1×10^5 CFU/mL inoculated", "method": "The antimicrobial efficacy of hypochlorous acid was tested at even lower concentrations (10, 25, and 50 ppm) against the challenging organism E. coli NCIMB 14067.\nThe representative colonies of E. coli NCIMB 14067 were dispersed in maximum recovery diluent (MRD) to obtain an optical density (OD540 nm) equivalent to approximately 1×10^6 CFU/mL. A quantitative plate count was performed on this suspension to determine the total number of viable organisms inoculated. A new suspension was prepared for each concentration tested.\nA 1000 ppm hypochlorous acid solution was diluted in sterile deionised water to provide the respective 10, 25 and 50 ppm hypochlorous acid solutions.\nThe hypochlorous acid samples were aliquoted into 9 mL volumes and 1 mL of the challenge organism suspension was added and mixed (the final number of bacteria present is now approximately 1×10^5 CFU/mL). Following 5, 30 seconds, 1, 2, and 5 minutes, 100 μL volumes were sampled and transferred to 0.9 mL and 9.9 mL of Dey-Engley Neutralising Broth (DENB) (to provide a 1:10 and 1:100 dilution respectively), and total viable counts were performed to establish the amount present. The plates were left to dry before being inverted and incubated at 35±3° C. for at least 48 hours. A negative control was also tested whereby 1 mL of the challenge organism suspension was added to 9 mL of MRD and tested as previously described. Following the incubation period, the number of CFUs were counted on the most appropriate dilution for each sample i.e. between 25-250 CFU/plate."}, "[3]": {"details": "675 ppm, 30 seconds after sampling"}, "[4]": {"details": "each concentration tested (250, 675, 1000, 2000 ppm), after 5 minutes of sampling"}, "[5]": {"details": "100 ppm in SDW, within 5 seconds and for the remaining testing period (5 minutes)"}, "[6]": {"details": "0.1% and 0.01% in SDW, any timepoint, 5 seconds to 5 minutes"}},
  "data": [
    {"molecule": "[O][Cl+][O-]", "note": "[chlorine dioxide]", "values": [
      {"measurement": "reduction in the microbial colony forming unit (CFU) counts", "setting": "E. faecalis; after around 30 seconds of inoculation", "result": "4 orders of magnitude"},
      {"measurement": "time up to which rapid kill was observed", "setting": "E. faecalis", "result": "up to 6 hours"},
      {"measurement": "time up to which rapid kill was observed", "setting": "E. coli", "result": "up to 24 hours"},
      {"measurement": "time up to which rapid kill was observed", "setting": "S. aureus", "result": "up to 6 hours"}
    ]},
    {"molecule": "OCl", "note": "[hypochlorous acid]", "values": [
      {"measurement": "time up to which highly effective kill was observed", "setting": "E. faecalis; 250 ppm, 30 seconds post-inoculation", "result": "Up to 5 hours"},
      {"measurement": "time up to which highly effective kill was observed", "setting": "E. faecalis; 250 ppm, all time periods post-inoculation", "result": "up to 4 hours"},
      {"measurement": "time up to which effective kill was observed", "setting": "E. faecalis; [3]", "result": "up to 24 hours"},
      {"measurement": "time up to which highly effective kill was observed", "setting": "E. faecalis; 675 ppm, all time periods post-inoculation", "result": "up to 6 hours"},
      {"measurement": "time up to which highly effective kill was observed", "setting": "E. faecalis; 675 ppm, from 30 seconds post-inoculation", "result": "up to 24 hours"},
      {"measurement": "time up to which highly effective kill was observed", "setting": "E. faecalis; 1000 ppm, all time periods post-inoculation", "result": "up to 24 hours"},
      {"measurement": "reduction in the microbial colony forming unit (CFU) counts", "setting": "E. faecalis; after 5 minutes of inoculation", "result": "over 3 orders of magnitude"},
      {"measurement": "time up to which effective kill was found", "setting": "E. faecalis; [4]", "result": "up to 24 hours"},
      {"measurement": "time up to which rapid kill was observed", "setting": "E. faecalis", "result": "up to 6 hours"},
      {"measurement": "time up to which highly effective kill was observed", "setting": "E. coli; 250 ppm", "result": "up to 5 hours"},
      {"measurement": "time up to which highly effective kill was observed", "setting": "E. coli; 675 ppm and above", "result": "up to 24 hours"},
      {"measurement": "time up to which effective kill was observed", "setting": "E. coli; [3]", "result": "up to 24 hours"},
      {"measurement": "time up to which effective kill was found", "setting": "E. coli; [4]", "result": "up to 24 hours"},
      {"measurement": "time up to which rapid kill was observed", "setting": "E. coli", "result": "up to 24 hours"},
      {"measurement": "numbers of challenge organism", "setting": "[1]; [5]", "result": "undetectable numbers"},
      {"measurement": "numbers of challenge organism", "setting": "[2]; [5]", "result": "undetectable numbers"},
      {"measurement": "numbers of bacteria", "setting": "E. coli NCIMB 14067; 25 ppm", "result": "undetectable numbers"},
      {"measurement": "numbers of bacteria", "setting": "E. coli NCIMB 14067; 50 ppm", "result": "undetectable numbers"},
      {"measurement": "CFU/mL of negative control (MRD) larger than for the samples by", "setting": "E. coli NCIMB 14067; all concentrations (10, 25, 50 ppm) and time points tested", "result": "over 4 orders of magnitude"},
      {"measurement": "time up to which rapid kill was observed", "setting": "S. aureus", "result": "up to 6 hours"}
    ]},
    {"molecule": "Nc1ccc(S(N)(=O)=O)cc1", "note": "[sulfanilamide, reference compound]", "values": [
      {"measurement": "change in challenge organism numbers compared to the control", "setting": "[1]; [6]", "result": "no decrease"},
      {"measurement": "change in challenge organism numbers compared to the control", "setting": "[2]; [6]", "result": "no decrease"}
    ]}
  ]
}
